Measured values as given in patent US8796301B2, “Therapeutic or prophylactic agent for dyskinesia” (Toray Industries, Inc., priority 2007, dated 2014).

Legend:
[1] = tested on: L-DOPA-induced dyskinesia in a rat model of Parkinson's disease; experiment: L-DOPA-induced dyskinesia in a rat model of Parkinson's disease (6-hydroxydopamine lesion), dyskinesia score; format: in vivo
[2] = tested on: dyskinesia; details: WO00/003715; cited from earlier work

SMILES	effect on L-DOPA-induced dyskinesia (dyskinesia score vs control score) ([1]; 10 μg/kg subcutaneous, simultaneously with L-DOPA 20 mg/kg oral, FIG. 1)	effect on L-DOPA-induced dyskinesia (dyskinesia score vs control score) ([1]; 10 mg/kg subcutaneous, with L-DOPA 20 mg/kg oral, FIG. 2, FIG. 3, FIG. 4)	effect on L-DOPA-induced dyskinesia (dyskinesia score vs control score) ([1]; 30 mg/kg subcutaneous, with L-DOPA 20 mg/kg oral, FIG. 4)	effect on dyskinesia [2]
CN(C(=O)/C=C/c1ccoc1)[C@@H]1CC[C@@]2(O)[C@H]3Cc4ccc(O)c5c4[C@@]2(CCN3CC2CC2)[C@H]1O5.Cl [Compound 1, (−)-17-(cyclopropylmethyl)-3,14β-dihydroxy-4,5α-epoxy-6β-[N-methyl-trans-3-(3-furyl)acrylamido]morphinan hydrochloride]	significantly suppressed dyskinesia			
COC(=O)/C=C/C(=O)N[C@@H]1CC[C@@]2(O)[C@H]3Cc4ccc(O)c5c4[C@@]2(CCN3CC2CC2)[C@H]1O5 [β-funaltrexamine]		did not influence L-DOPA-induced dyskinesia at all	did not influence L-DOPA-induced dyskinesia at all	suppresses dyskinesia
